# From patent US20220363686A1 (AiCuris GmbH & Co. KG, priority 2018, published 2022)
# Legend:
# [1] = Cell viability assay (AlamarBlue); details: human, HepAD38 cells
# Protocol: Using the AlamarBlue viability assay cytotoxicity was evaluated in HepAD38 cells in the presence of 0.3 μg/ml tetracycline, which blocks the expression of the HBV genome. Assay condition and plate layout were in analogy to the anti-HBV assay, however other controls were used. On each assay plate six wells containing untreated HepAD38 cells were used as the 100% viability control, and six wells filled with assay medium only were used as 0% viability control. In addition, a geometric concentration series of cycloheximide starting at 60 μM final assay concentration was used as positive control in each experiment. After six days incubation period Alamar Blue Presto cell viability reagent (ThermoFisher, Dreieich) was added in 1/11 dilution to each well of the assay plate. After an incubation for 30 to 45 min at 37° C. the fluorescence signal, which is proportional to the number of living cells, was read using a Tecan Spectrafluor Plus plate reader with an excitation filter 550 nm and emission filter 595 nm, respectively. Data were normalized into percentages of the untreated control (100% viability) and assay medium (0% viability) before CC50 values were calculated using non-linear regression and the GraphPad Prism 6.0 (GraphPad Software, La Jolla, USA). Mean EC50 and CC50 values were used to calculate the selectivity index (SI=CC50/EC50) for each test compound.
# [2] = target: HBV core protein (C-terminal truncated core protein containing 149 amino acids of the N-terminal assembly domain) (UniProt P03146); test: Biochemical capsid assembly assay (fluorescence quenching); design: rows headed: Assembly Activity; other: BODIPY-FL labelled core protein, assembly started with NaCl, read after 6 min; details: read-out: Assembly Activity; BODIPY-FL labelled core protein, assembly started with NaCl, read after 6 min
# Sequence of HBV core protein (C-terminal truncated core protein containing 149 amino acids of the N-terminal assembly domain) (P03146 whole entry, the tested form may be a part): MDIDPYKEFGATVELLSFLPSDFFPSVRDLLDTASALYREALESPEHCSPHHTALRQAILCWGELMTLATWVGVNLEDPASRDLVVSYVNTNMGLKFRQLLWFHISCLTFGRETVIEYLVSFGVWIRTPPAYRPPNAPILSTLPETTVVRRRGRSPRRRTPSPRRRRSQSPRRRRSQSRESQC
# Protocol: The screening for assembly effector activity was done based on a fluorescence quenching assay published by Zotnick et al. (2007). The C-terminal truncated core protein containing 149 amino acids of the N-terminal assembly domain fused to a unique cysteine residue at position 150 and was expressed in E. coli using the pET expression system (Merck Chemicals, Darmstadt). Purification of core dimer protein was performed using a sequence of size exclusion chromatography steps. In brief, the cell pellet from 1 L BL21 (DE3) Rosetta2 culture expressing the coding sequence of core protein cloned NdeI/XhoI into expression plasmid pET21b was treated for 1 h on ice with a native lysis buffer (Qproteome Bacterial Protein Prep Kit; Qiagen, Hilden). After a centrifugation step the supernatant was precipitated during 2 h stirring on ice with 0.23 g/ml of solid ammonium sulfate. Following further centrifugation the resulting pellet was resolved in buffer A (100 mM Tris, pH 7.5; 100 mM NaCl; 2 mM DTT) and was subsequently loaded onto a buffer A equilibrated CaptoCore 700 column (GE HealthCare, Frankfurt). The column flow through containing the assembled HBV capsid was dialyzed against buffer N (50 mM NaHCO3 pH 9.6; 5 mM DTT) before urea was added to a final concentration of 3M to dissociate the capsid into core dimers for 1.5 h on ice. The protein solution was then loaded onto a IL Sephacryl S300 column. After elution with buffer N core dimer containing fractions were identified by SDS-PAGE and subsequently pooled and dialyzed against 50 mM HEPES pH 7.5; 5 mM DTT. To improve the assembly capacity of the purified core dimers a second round of assembly and disassembly starting with the addition of 5 M NaCl and including the size exclusion chromatography steps described above was performed. From the last chromatography step core dimer containing fractions were pooled and stored in aliquots at concentrations between 1.5 to 2.0 mg/ml at −80° C.
# Immediately before labelling the core protein was reduced by adding freshly prepared DTT in a final concentration of 20 mM. After 40 min incubation on ice storage buffer and DTT was removed using a Sephadex G-25 column (GE HealthCare, Frankfurt) and 50 mM HEPES, pH 7.5. For labelling 1.6 mg/ml core protein was incubated at 4° C. and darkness overnight with BODIPY-FL maleimide (Invitrogen, Karlsruhe) in a final concentration of 1 mM. After labelling the free dye was removed by an additional desalting step using a Sephadex G-25 column. Labelled core dimers were stored in aliquots at 4° C. In the dimeric state the fluorescence signal of the labelled core protein is high and is quenched during the assembly of the core dimers to high molecular capsid structures. The screening assay was performed in black 384 well microtiter plates in a total assay volume of 10 μl using 50 mM HEPES pH 7.5 and 1.0 to 2.0 μM labelled core protein. Each screening compound was added in 8 different concentrations using a 0.5 log-unit serial dilution starting at a final concentration of 100 μM, 31.6 μM or 10 μM, In any case the DMSO concentration over the entire microtiter plate was 0.5%. The assembly reaction was started by the injection of NaCl to a final concentration of […] which induces the assembly process to approximately 25% of the maximal quenched signal. 6 min after starting the reaction the fluorescence signal was measured using a Clariostar plate reader (BMG Labtech, Ortenberg) with an excitation of 477 nm and an emission of 525 nm. As 100% and 0% assembly control HEPES buffer containing 2.5 M and 0 M NaCl was used. Experiments were performed thrice in triplicates. EC50 values were calculated by non-linear regression analysis using the Graph Pad Prism 6 software (GraphPad Software, La Jolla, USA).
# HBV = test: Determination of HBV DNA from the supernatants of HepAD38 cells (anti-HBV activity); format: cell-based, hepatitis B virus; details: Hepatitis B virus, HePAD38, 144 h, HBV DNA in HepAD38 supernatant, day 6, qPCR; read-out: Cell Activity
# Protocol: The anti-HBV activity was analysed in the stable transfected cell line HepAD38, which has been described to secrete high levels of HBV virion particles (Ladner et al., 1997). In brief, HepAD38 cells were cultured at 37° C. at 5% CO2 and 95% humidity in 200 μl maintenance medium, which was Dulbecco's modified Eagle's medium/Nutrient Mixture F-12 (Gibco, Karlsruhe), 10% fetal bovine serum (PAN Biotech Aidenbach) supplemented with 50 μg/ml penicillin/streptomycin (Gibco, Karlsruhe), 2 mM L-glutamine (PAN Biotech, Aidenbach), 400 μg/ml G418 (AppliChem, Darmstadt) and 0.3 μg/ml tetracycline. Cells were subcultured once a week in a 1:5 ratio, but were usually not passaged more than ten times. For the assay 60,000 cells were seeded in maintenance medium without any tetracycline into each well of a 96-well plate and treated with serial half-log dilutions of test compound. To minimize edge effects the outer 36 wells of the plate were not used but were filled with assay medium. On each assay plate six wells for the virus control (untreated HepAD38 cells) and six wells for the cell control (HepAD38 cells treated with 0.3 μg/ml tetracycline) were allocated, respectively. In addition, one plate set with reference inhibitors like BAY 41-4109, entecavir, and lamivudine instead of screening compounds were prepared in each experiment. In general, experiments were performed thrice in triplicates. At day 6 HBV DNA from 100 μl filtrated cell culture supernatant (AcroPrep Advance 96 Filter Plate, […] Supor membran, PALL GmbH, Dreieich) was automatically purified on the MagNa Pure LC instrument using the MagNA Pure 96 DNA and Viral NA Small Volume Kit (Roche Diagnostics, Mannheim) according to the instructions of the manufacturer. EC50 values were calculated from relative copy numbers of HBV DNA In brief, 5 μl of the 100 μl eluate containing HBV DNA were subjected to PCR LC480 Probes Master Kit (Roche) together with 1 μM antisense primer […], 0.5 μM sense primer […], 0.3 μM hybprobes […]-FL and LC640-[…]-PH (TIBMolBiol, Berlin) to a final volume of 12.5 μl. The PCR was performed on the Light Cycler 480 real time system (Roche Diagnostics, Mannheim) using the following protocol: Pre-incubation for 1 min at 95° C., amplification: 40 cycles×(10 sec at 95° C., 50 sec at 60° C., 1 sec at 70° C.), cooling for 10 sec at 40° C. Viral load was quantitated against known standards using HBV plasmid DNA of pCH-9/3091 (Nassal et al., 1990, Cell 63: 1357-1363) and the LightCycler 480 SW 1.5 software (Roche Diagnostics, Mannheim) and ECso values were calculated using non-linear regression with GraphPad Prism 6 (GraphPad Software Inc., La Jolla, USA).
Compound,CC50 at 6 days [1] [µM],IC50 [2] [µM],EC50 (HBV) [µM]
"CC1Cn2ncc(C(=O)N(C)C3CC3)c2CN1C(=O)c1cc2ccccc2[nH]1 (single isomer, unassigned) [Example 18, N-cyclopropyl-5-(1H-indole-2-carbonyl)-N,6-dimethyl-4H,5H,6H,7H-pyrazolo[1,5-a]pyrazine-3-carboxamide]",> 10,< 100,1 to 10
"O=C(NC1(c2ccncc2)CC1)c1cnn2c1CN(C(=O)c1cc3ccccc3[nH]1)CC2 [Example 98, 5-(1H-indole-2-carbonyl)-N-[1-(pyridin-4-yl)cyclopropyl]-4H,5H,6H,7H-pyrazolo[1,5-a]pyrazine-3-carboxamide]",> 10,< 5,< 1
"Cc1cc(F)cc2[nH]c(C(=O)N3CCn4ncc(C(=O)N[C@H](C)C(F)(F)F)c4C3)cc12 [Example 112, 5-(6-fluoro-4-methyl-1H-indole-2-carbonyl)-N-[(2R)-1,1,1-trifluoropropan-2-yl]-4H,5H,6H,7H-pyrazolo[1,5-a]pyrazine-3-carboxamide]",> 10,< 5,< 1
CN(C(=O)c1cnn2c1CN(C(=O)c1cc3ccccc3[nH]1)CC2)C1(CCOC(F)F)CCOCC1 [Example 128],> 10,< 5,1 to 10
"CN(C(=O)c1cnn2c1CN(C(=O)c1cc3ccccc3[nH]1)CC2)C1(CNCC(F)F)CC1 [Example 53, N-(1-{[(2,2-difluoroethyl)amino]methyl}cyclopropyl)-5-(1H-indole-2-carbonyl)-N-methyl-4H,5H,6H,7H-pyrazolo[1,5-a]pyrazine-3-carboxamide]",> 10,< 5,< 1
"CN(Cc1ccccn1)C(=O)c1cnn2c1CN(C(=O)c1cc3ccccc3[nH]1)CC2 [Example 44, 5-(1H-indole-2-carbonyl)-N-methyl-N-[(pyridin-2-yl)methyl]-4H,5H,6H,7H-pyrazolo[1,5-a]pyrazine-3-carboxamide]",> 10,< 5,< 1
"Cc1cc(F)cc2[nH]c(C(=O)N3CCn4ncc(C(=O)NC5(COC(F)F)CC5)c4C3)cc12 [Example 102, N-{1-[(difluoromethoxy)methyl]cyclopropyl}-5-(6-fluoro-4-methyl-1H-indole-2-carbonyl)-4H,5H,6H,7H-pyrazolo[1,5-a]pyrazine-3-carboxamide]",> 10,< 5,< 1
"CC(C)(C)NC(=O)c1cnn2c1CN(C(=O)c1cc3ccccc3[nH]1)CC2 [Example 87, N-tert-butyl-5-(1H-indole-2-carbonyl)-4H,5H,6H,7H-pyrazolo[1,5-a]pyrazine-3-carboxamide]",> 10,< 5,< 1
"CC1Cn2ncc(C(=O)N[C@H](C)C(F)(F)F)c2CN1C(=O)c1cc2c(Cl)cccc2[nH]1 (stereo partly drawn) [Example 145, 5-(4-chloro-1H-indole-2-carbonyl)-6-methyl-N-[(2R)-1,1,1-trifluoropropan-2-yl]-4H,5H,6H,7H-pyrazolo[1,5-a]pyrazine-3-carboxamide]",> 10,< 5,< 1
"CN(Cc1ccnn1C)C(=O)c1cnn2c1CN(C(=O)c1cc3ccccc3[nH]1)CC2 [Example 55, 5-(1H-indole-2-carbonyl)-N-methyl-N-[(1-methyl-1H-pyrazol-5-yl)methyl]-4H,5H,6H,7H-pyrazolo[1,5-a]pyrazine-3-carboxamide]",> 10,< 5,< 1
"O=C(c1cc2ccccc2[nH]1)N1CCn2ncc(N3CC4(CC4)CC3=O)c2C1 [Example 49, 5-[5-(1H-indole-2-carbonyl)-4H,5H,6H,7H-pyrazolo[1,5-a]pyrazin-3-yl]-5-azaspiro[2.4]heptan-6-one]",> 10,< 5,< 1
"O=C(c1cc2ccccc2[nH]1)N1CCn2ncc(S(=O)(=O)N3CCC(O)CC3)c2C1 [Example 35, 1-{[5-(1H-indole-2-carbonyl)-4H,5H,6H,7H-pyrazolo[1,5-a]pyrazin-3-yl]sulfonyl}piperidin-4-ol]",> 10,< 5,< 1
"O=C(NC1(COC(F)F)CC1)c1cnn2c1CN(C(=O)c1cc3cc(F)c(F)cc3[nH]1)CC2 [Example 139, 5-(5,6-difluoro-1H-indole-2-carbonyl)-N-{1-[(difluoromethoxy)methyl]cyclopropyl}-4H,5H,6H,7H-pyrazolo[1,5-a]pyrazine-3-carboxamide]",> 10,< 5,< 1
"COCC1(CNC(=O)c2cnn3c2CN(C(=O)c2cc4ccccc4[nH]2)CC3)CC1 [Example 10, 5-(1H-indole-2-carbonyl)-N-{[1-(methoxymethyl)cyclopropyl]methyl}-4H,5H,6H,7H-pyrazolo[1,5-a]pyrazine-3-carboxamide]",> 10,5 to 10,1 to 10
"O=C(c1cc2c(F)c(F)ccc2[nH]1)N1CCn2ncc(C(=O)N3CCCOCC34CC4)c2C1 [Example 109, 4-[5-(4,5-difluoro-1H-indole-2-carbonyl)-4H,5H,6H,7H-pyrazolo[1,5-a]pyrazine-3-carbonyl]-8-oxa-4-azaspiro[2.6]nonane]",> 10,< 5,< 1
